Data: ChEMBL document CHEMBL1137040, “Estrone formate: a novel type of irreversible inhibitor of human steroid sulfatase” (Bioorg Med Chem Lett, 2004)

What follows are molecules tested against T1, Steryl-sulfatase (Homo sapiens, UniProt P08842) (assay: Inhibition of purified human steroid sulfatase).
T1 sequence (P08842 whole entry): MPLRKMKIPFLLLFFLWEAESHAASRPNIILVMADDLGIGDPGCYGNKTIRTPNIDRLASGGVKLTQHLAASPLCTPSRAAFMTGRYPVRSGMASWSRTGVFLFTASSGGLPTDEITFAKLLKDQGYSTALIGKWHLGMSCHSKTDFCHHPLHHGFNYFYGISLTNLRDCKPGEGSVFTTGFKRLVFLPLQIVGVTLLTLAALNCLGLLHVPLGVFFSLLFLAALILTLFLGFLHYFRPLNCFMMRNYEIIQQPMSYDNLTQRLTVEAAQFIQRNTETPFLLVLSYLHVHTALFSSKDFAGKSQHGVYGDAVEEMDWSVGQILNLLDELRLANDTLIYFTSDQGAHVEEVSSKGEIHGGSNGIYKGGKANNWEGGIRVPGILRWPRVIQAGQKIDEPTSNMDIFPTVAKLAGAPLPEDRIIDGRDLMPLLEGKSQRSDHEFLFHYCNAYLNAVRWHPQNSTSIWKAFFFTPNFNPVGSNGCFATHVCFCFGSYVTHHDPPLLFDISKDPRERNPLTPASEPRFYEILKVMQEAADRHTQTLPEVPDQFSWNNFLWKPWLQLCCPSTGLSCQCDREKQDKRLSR

Going from O=COc1ccccc1 [FORMIC ACID PHENYL ESTER] to C[C@]12CC[C@@H]3c4ccc(OC=O)cc4CCC3[C@@H]1CCC2=O (single isomer, unassigned), the IC50 falls from > 30 µM to 0.42 µM. The second is the more potent here.

C[C@]12CC[C@@H]3c4ccc(OC#N)cc4CCC3[C@@H]1CCC2=O (single isomer, unassigned) and CC(=O)Oc1ccc2c(c1)CCC1[C@@H]2CC[C@]2(C)C(=O)CC[C@@H]12 (single isomer, unassigned) cannot be ordered by IC50: > 50 µM for the first, > 50 µM for the second.

First: C[C@]12CC[C@@H]3c4ccc(OS(N)(=O)=O)cc4CCC3[C@@H]1CCC2=O (single isomer, unassigned) [EMATE]
Second: C[C@]12CC[C@@H]3c4ccc(OC(N)=O)cc4CCC3[C@@H]1CCC2=O (single isomer, unassigned)
The IC50 of the first is lower: 0.05 µM for the first, > 50 µM for the second. The first is the more potent here.

C[C@]12CC[C@@H]3c4ccc(OC(=O)CN)cc4CCC3[C@@H]1CCC2=O (single isomer, unassigned) and C[C@]12CC[C@@H]3c4ccc(OC(=N)S)cc4CCC3[C@@H]1CCC2=O (single isomer, unassigned) cannot be ordered by IC50: > 50 µM for the first, > 50 µM for the second.

Going from O=COc1ccc2nc(C=C3C4CC5CC(C4)CC3C5)oc2c1 to Oc1ccc2nc(C=C3C4CC5CC(C4)CC3C5)oc2c1, the IC50 falls from 1.5 µM to 0.26 µM (5.8-fold). The second is the more potent here.

C[C@]12CC[C@H](OC=O)C=C1CCC1C2CC[C@]2(C)C(=O)CCC12 (stereo partly drawn) and CC(C)(C)OC(=O)NCC(=O)Oc1ccc2c(c1)CCC1[C@@H]2CC[C@]2(C)C(=O)CC[C@@H]12 (single isomer, unassigned) cannot be ordered by IC50: > 10 µM for the first, > 50 µM for the second.

With C[C@]12CC[C@@H]3c4ccc(OC(=O)NCc5ccccc5)cc4CCC3[C@@H]1CCC2=O (single isomer, unassigned) the IC50 was > 50 µM.
